{"source": "patent US9801845B2", "about": "(priority 2015, dated 2017)", "key": {"[1]": {"test_system": "C. perfringens", "format": "cell-based, Clostridium perfringens", "settings": "TSA-thioglycolate broth, 250 μL of 2% w/v, overnight, anaerobic"}, "[2]": {"test_system": "C. perfringens", "format": "cell-based, Clostridium perfringens", "settings": "FIG. 2"}}, "note": "Positions of bridges follow the written chain, without caps; N, C: chain ends. Non-standard residues stand in square brackets, D forms with d. Residues, ends and D or L forms follow the SMILES beside them. *: point of attachment. Ileψ(thiazoline)Cys = CC[C@H](C)[C@H](N)C1=N[C@H](C(=O)*)CS1; dOrn = NCCC[C@@H](N)C(=O)O", "data": [{"smiles": "CC[C@H](C)[C@H](N)C1=N[C@H](C(=O)N[C@@H](CC(C)C)C(=O)N[C@H](CCC(=O)O)C(=O)N[C@H](C(=O)N[C@H]2CCCCNC(=O)[C@H](CC(N)=O)NC(=O)[C@@H](CC(=O)O)NC(=O)[C@H](Cc3cnc[nH]3)NC(=O)[C@@H](Cc3ccccc3)NC(=O)[C@H]([C@@H](C)CC)NC(=O)[C@@H](CCCN)NC2=O)[C@@H](C)CC)CS1", "note": "[Bacitracin] ({Ileψ(thiazoline)Cys}-L[dE]IK[dOrn]I[dF]H[dD]N; lactam 4-C)", "values": [{"measurement": "inhibition of C. perfringens growth (counts)", "setting": "[1]", "value": "complete inhibition"}, {"measurement": "inhibition of the growth of C. perfringens, crop assay", "setting": "[2]; crop supernatant pH 5.34, 250 μL of 2% w/v, 24 h", "value": "complete inhibition"}, {"measurement": "reduction of C. perfringens, ileal assay (in words)", "setting": "[2]; ileal supernatant pH 7.01, 24 h", "value": "almost complete reduction"}, {"measurement": "effectiveness against C. perfringens, proventricular assay", "setting": "[2]; proventricular supernatant pH 2.54, 250 μL of 2% w/v, 24 h", "value": "not effective"}]}]}
